The test system of data set [1] is MDA-MB-468 cells. The experiment in a line: Cell-Titer Glo viability assay, MDA-MB-468 AhR WT and AhR KO cells. The format is cell-based, human. The procedure: (§1) Viability assays were performed by seeding cells at a density of 2000 cells per well in 96-well plates, and the following day, treating with compounds for 48 or 72 hours as indicated. Viability was determined by ATP-based Cell-Titer Glo Viability Assay (Promega, Madison WI). Luminescence was measured using the Tropix TR717 microplate luminometer. Viability of treated cells was determined by relativizing to vehicle (0.1-0.3% DMSO) treated wells. For profiling the activity of Analog 523 against the panel of triple-negative breast cancer cell lines, 72-hour treatments are represented.
Analogs of 11-Cl-BBQ were synthesized by Praxis Precision Medicines. Screening was performed using MDA-MB-468 AhR WT and AhR KO cells previously described. Cells were seeded in 10% serum or 2% serum containing media with 1% Pen/Strep at a density of 2000 cell/well in 96-well plates. 20 hours post-seeding, cells were treated with 0.1 μM, 1 μM, or 10 μM of each analog (final DMSO concentration 0.1%-0.2%). After 48 and 72 hours, cells were harvested. The ATP-Based CellTiter Glo Assay kit (Promega, Madison, WI) was used for measuring cell viability.

For a further data set, the system named is AhR. The experiment in a line: Xenobiotic response element (XRE) driven reporter in Hepa-1 cells, AhR activation. It is filed as cell-based, mouse. The following applies: 16 hours. The procedure: FIGS. 69A-69D show representative 11-Cl-BBQ analogs (848 and 849) as non-classical AHR ligands. (A) Stability of AHR protein in the H460 whole cell lysate in the presence or absence of 11-Cl-BBQ (5 μM), PRXS-848 (10 μM), and PRXS-849 (10 μM) at the indicated temperatures; GADPH was used as a loading control. (B) Localization of AHR protein in the H460 treated with 11-Cl-BBQ (100 nM), PRXS-848 (250 nM), PRXS-849 (250 nM), or vehicle control (0.1% DMSO) for two hours; top horizontal panel: AHR protein staining using an AHR-specific antibody conjugated with FITC (green) fluorophore; middle panel: DAPI staining; bottle panel: overlaid images from the top panel and the middle panel in the same column. (C) AHR activation (measured by XRE-luciferase reporter assay in Hepa1 cells) of the parental lead 11-Cl-BBQ and analogs PRXS-848 and PRXS-849 at the indicated concentrations for 16 hours. (D) AHR activation of 11-Cl-BBQ cotreated with a known AHR antagonist CH223191 (1 μM) or 11-Cl-BBQ analogs PRXS-848 and PRXS-849 at the indicated concentrations for 16 hours.
FIG. 76 presents representative AhR compounds (BBQ analogs) of the invention effective for activation of AhR transcription. Activation values greater than 1 at 100 nM were considered a hit with nanomolar affinity to promote AhR activity and synergize with the identified compounds from the synergy screens. Referring to FIG. 76, Fold@ 1 nM refers to activation of AhR transcription at 1 nM; Fold@100 nM refers to activation of AbR transcription at 100 nM; and Fold rel @ 100 refers to relative activation at 100 nM compared to parental compound, 11-Cl-BBQ. The representative AhR ligand compounds presented in FIG. 76 activate AhR transcription and therefore are useful as anti-cancer agents, either alone or in combination with the synergizing compounds (and chemotherapeutic agents) described herein.
was identified as a top hit compound based on its potent (>50% inhibition at 0.1 μM), and selective activity against AhR WT cells versus AhR KO cells (>70% difference between WT and KO cells at 10 μM) (FIG. 11). […] This confirmed Analog 523 activates AhR-mediated transcription and functions as an AhR ligand.

The subject of the next data set is HCC1187 cells. Briefly: Cell viability assay, HCC1187 TNBC cells. The format is cell-based, human. The procedure: as §1
The next data set deals with HCC70 cells. The experiment in a line: Cell viability assay, HCC70 TNBC cells. It is filed as cell-based, human. The procedure: as §1
In data set [2] the test system is SKBR-3 HER2+ breast cancer cells. The experiment in a line: Cell viability assay, SKBR-3 HER2+ breast cancer cells. It is filed as cell-based, human. The conditions noted are these: 72 hours. The procedure: as §1
Another data set has as its system ST2 cells. Briefly: Cell viability assay, TNBC stem cells ST2. It is filed as cell-based. The conditions noted are these: Homo sapiens, ST-2; 100 nM; 48 hours. The procedure:
as §1
ST1 and ST2 cells were cultured in Mammary epithelial growth medium (Biowhitakker) (Lonza), with the following supplements: Epidermal growth factor (20 ng/mL) (Sigma), basic fibroblast growth factor (20 ng/mL) (BD Biosciences), Heparin (4 μg/mL) (Sigma), B27 Supplement (Invitrogen), Penicillin/Streptomycin (Omega), Gentamycin (35 μg/mL) (Sigma). Cells were gently passaged with Accutase solution. The isolation and characterization of the ST1 and ST2 lines have been previously described (Strietz et al., 2021).

Data set [3] concerns primary human mammary epithelial cells (HMECs) and MCF10A. The experiment in a line: Cell viability, primary human mammary epithelial cells (HMECs) and MCF10A. It is filed as cell-based. The conditions noted are these: 72-hour exposure. The procedure: as §1
All cell lines, except for the ST1 and ST2 cells were purchased from ATCC, and maintained in 5% CO2, at 37° C., in DMEM or RPMI media containing 10% FBS, and 1% penicillin/streptomycin. All HCC-cell lines were maintained in RPMI. All MDA-cell lines were maintained in DMEM. ZR-75I cells were maintained in RPMI. SKBR3 cells were maintained in DMEM. MCF10A cells were maintained in DMEM/F12 medium with the following supplements added: 5% horse serum, 20 ng/mL epidermal growth factor, […] hydrocortisone, 100 ng/mL cholera toxin, 10 μg/mL insulin, 1% Pen/Strep. Primary human mammary epithelial cells (HMECs) were obtained from Lonza Biosciences (Basel, Switzerland) and were maintained according to the specified culture protocols in Clonetics™ Mammary Epithelial Basal Medium (Lonza). […]

Data set [4] deals with MDA-MB-468 cells. Briefly: Transcriptional profiling by RNA-Seq, MDA-MB-468 AhR WT cells. The format is cell-based, human. The conditions noted are these: 250 nM. The procedure:
MDA-MB-468 AhR WT and AhR KO cells were seeded in 10 cm plates (3.5 million cells/plate) and allowed to attach overnight. The following day, media was replaced with fresh media containing 250 nM of Analog 523 or Vehicle (0.1% DMSO). Treatments were performed in triplicate. At 4 hours and 12 hours post-treatment, samples were harvested by addition of 700 μL of TRK-Lysis buffer and RNA isolation then performed according to the manufacturer's instructions (E.Z.N.A. Total RNA Kit, Omega Bio-Tek, Norcross, GA). Samples were quantified and 260/280 and 260/230 values inspected by NanoDrop. Samples were then sent for quality control, library preparation (poly-A enrichment) and sequencing at Novogene. Sequencing was performed with 150 bp paired-end reads to a depth of 20 million reads […].

For data set [5] the following is noted: rats; cited from earlier work.

For orientation: IC50 means the concentration that gives 50% inhibition. Low values mean inhibition by little substance, high ones a need for much substance. For orientation: LD50 means the dose expected to kill half of the subjects tested. Take `O=c1c2cccc3cccc(c32)c2nc3ccccc3n12` [Analog 523, 7H-benzimidazo[2,1-a]benzo[de]isoquinolin-7-one]: in the data set with MDA-MB-468 cells [1] (10 μM, AhR WT versus AhR KO), the “difference between WT and KO cells (cell viability)” value is reported as greater than 70%. For the same compound, the percent inhibition of cell viability at 0.1 µM in the data set on MDA-MB-468 cells [1] (Homo sapiens, 0.1 μM, AhR WT MDA-MB-468 cells) was greater than 50%. Further, the IC50 came out at 0.0412 µM with MDA-MB-468 cells [1] (Homo sapiens, MDA-MB-468, 72-hour treatment); 0.0817 µM in the data set with HCC1187 cells (Homo sapiens, HCC1187, 72-hour treatment); 0.153 µM with HCC70 cells (Homo sapiens, HCC70, 72-hour treatment). The “inhibition (cell viability)” value is listed as greater than 50% in the data set on MDA-MB-468 cells [1] (at <0.5 μM, 72 hours); greater than 50% with HCC1187 cells (at <0.5 μM, 72 hours); greater than 50% with HCC70 cells (at <0.5 μM, 72 hours). The “receptor activation (XRE reporter)” value in the data set on AhR (100 μM) is roughly 2 fold. Besides, the maximal reporter induction with AhR (approximately 100 nM) is 10-12 fold. The “concentrations at which cell line was sensitive (viability)” value in data set [2] is greater than 1 µM. The compound also registered an inhibition of cell viability at 0.1 µM in the data set on ST2 cells greater than 50%. The “inhibition of cell viability in normal mammary epithelial cells” value in data set [3] (10 μM) is given as roughly 20%. For the same compound, the “cytotoxicity in normal mammary epithelial cells” value in [3] (0.01-10 μM) is listed as “did not induce any cytotoxicity”. Also, the “BIK mRNA induction” value in the data set on MDA-MB-468 cells [4] was roughly 1.5 fold. The “BMF mRNA induction” value in the data set on MDA-MB-468 cells [4] is 4-5 fold. Also, the “PMA1P1 mRNA induction” value in the data set with MDA-MB-468 cells [4] is recorded as roughly 1.5 fold. The “IER3 mRNA increase” value in the data set with MDA-MB-468 cells [4] (12 hours) is reported as “greater than 6 fold”. For the same compound, the “OSGIN1 mRNA increase” value with MDA-MB-468 cells [4] (12 hours) is given as greater than 4 fold. In addition, the LD50 in [5] is listed as 660 mg/kg.

The values above are taken from patent publication US20260007652A1, “Selective Modulators of AhR-Regulated Transcription and Method for Using Such Modulators to Treat Cancer” (OREGON STATE UNIVERSITY, priority 2022, published 2026).
